Data taken from patent publication US20240307390A1, “METHODS AND COMPOSITIONS FOR CANCER TREATMENT BY TARGETING AXL SIGNALING” (Sanford Burnham Prebys Medical Discovery Institute, priority 2023, published 2024).

What was measured:
[1] = test system: mesenchymal and immune-stimulatory genes, cell morphology; assay: Gene expression and cell morphology after EYA2 Tyr phosphatase inhibitor treatment; assay type: cell-based; details: similar to EYA2 KD (flat, cuboidal morphology, decreased mesenchymal, induced immune-stimulatory genes); data not shown
Source text: EYA2 KD induced a flat, cuboidal morphology, decreased mesenchymal gene expression, and induced immune-stimulatory genes (FIGS. 2G-2I), phenocopying FBXO7 KD. […] Expression of WT EYA2, but not Tyr phosphatase mutant EYA2D274N or SIX binding mutant EYA2A532R, largely rescued the decreased mesenchymal and increased immune-stimulatory genes in FBXO7 KD cells (data not shown).

GAS6 in MDA-MB-231 cells = assay: GAS6 expression and protein in MDA-MB-231 cells; assay type: cell-based, human
Source text: (§1) FIGS. 4E and 4F represent ChIP analysis of Flag-EYA2 (FIG. 4E) and Flag-SIX1 (FIG. 4F) binding Gas6 promoter in MDA-MB-231 cells transfected with the indicated siRNAs. FIGS. 4G-4I show GAS6 expression in MCF7 cells transfected with indicated vectors (FIG. 4G) and MDA-MB-231 cells expressing indicated shRNAs (FIG. 4H) or treated with vehicle or EYA2i (FIG. 4I). FIGS. 4J and 4K show immunoblots of AXL signaling proteins in MDA-MB-231 cells transfected with control or FBXO7 siRNA (FIG. 4J) or treated with vehicle or EYA2i (FIG. 4K).
To determine how the FBXO7/EYA2-SCFFBXW7 axis maintains mesenchymal and immune evasion phenotypes of cancer cells, chromatin IP sequencing (ChIP-seq) profiles of EYA2 binding in control and FBXO7 KD cells (FIGS. 4A and 4B) were compared. FBXO7 KD decreased EYA2 binding at various genomic regions, including promoters, exons, and introns (data not shown). […] GAS6 was chosen for further analysis because of the link between AXL and mesenchymal phenotypes in TNBC cells. ChIP confirmed that EYA2 and SIX1 bound the Gas6 promoter and binding was diminished by KD of FBXO7 or co-transcriptional counterpart (FIGS. 4E and 4F). EYA2-2A also bound the Gas6 promoter (data not shown), indicating independence of CPD phosphorylation. Further, FBXO7 bound the Gas6 promoter and FBXO7 or ΔF-FBXO7 expression stimulated EYA2 binding (data not shown). […]

AXL signaling = assay: Immunoblots of AXL signaling proteins in MDA-MB-231 cells; assay type: cell-based, human; details: FIG. 4K
Source text: as §1
In line with the role of GAS6 as an AXL ligand, FBXO7 KD decreased total AXL and phospho-AXLTyr702 and decreased AXL surface expression (FIGS. 4J and 4M), indicating inhibition of AXL signaling. […] GAS6 expression rescued the decreased total and phospho-AXLTyr702 in FBXO7 KD cells (FIG. 4L). Consistent with a role of SCFFBXW7 in antagonizing FBXO7 functions, FBXW7 KD rescued the decreased GAS6 and attenuated AXL signaling in FBXO7 KD cells (data not shown). […] Expression of proinflammatory cytokine suppressor and AXL signaling effector SOCS1 partially rescued the increased IFNα/β, CXCL9/10, and HLA-A/B induced by FBXO7 KD (FIG. 4O). Further, GAS6 expression rescued the increased HLA-A/B/C surface expression on FBXO7 KD cells (data not shown).

cancer cells = assay: Cancer cell viability upon doxorubicin treatment; assay type: cell-based; details: partially rescued by GAS6 expression, FIG. 5H
Source text: FIGS. 5A and 5B show a gap closure assay of control, FBXO7 KD, and FBXO7 KD+GAS6 MDA-MB-231 (FIG. 5A) and BT-549 (FIG. 5B) cells. FIGS. 5C and 5D show the migration (FIG. 5C) and invasion (FIG. 5D) of indicated control, FBXO7 KD, and FBXO7 KD+GAS6 cells. […] FIGS. 5G and 5H show viabilities of indicated control, FBXO7 KD, or FBXO7 KD+GAS6 (FIG. 5G) or vehicle or EYA2i treated (FIG. 5H) cells upon doxorubicin treatment.
FBXO7 KD diminished mesenchymal cancer cell migration and invasion in in vitro assays (data not shown). These FBXO7 KD effects were largely rescued by GAS6 expression (FIGS. 5A-5D). […] Again, these phenotypes were largely rescued by GAS6 expression (FIGS. 5E and 5F). […] Consistent with an antagonistic role of SCFFBXW7, FBXW7 KD partially rescued the reduced migration of FBXO7 KD cells and enhanced EYA2i sensitivity (data not shown).

[2] = test system: MDA-MB-231-luc breast tumors; assay: Orthotopic MDA-MB-231-luc breast tumors in immunocompromised mice; assay type: in vivo; details: partially rescued by GAS6 expression
Source text: (§2) FIGS. 6A and 6B show growth curves (FIG. 6A) and images (FIG. 6B) of control, FBXO7 KD, and FBXO7 KD+GAS6 MDA-MB-231 breast tumors in immunocompromised mice. […] FIGS. 6E and 6F show growth curves (FIG. 6E) and images (FIG. 6F) of control and GAS6-expressing MDA-MB-231-luc breast tumors in immunocompromised mice treated with vehicle or EYA2i.

4T1-luc breast tumors = assay: 4T1-luc TNBC tumors in syngeneic immunocompetent mice; assay type: in vivo
Protocol: as §2
Immunocompetent mice bearing 4T1-luc TNBCs were treated with vehicle or EYA2i and isotype IgG (control) or anti-PD-1 antibody (FIG. 6H).

FBXO7-EYA2 binding = assay: Co-IP of FBXO7-EYA2 binding in treated cells; assay type: cell-based; details: treatment of cells; data not shown
Protocol: To gain insight into how FBXO7 maintains mesenchymal phenotypes and immune evasion of cancer cells, protein mass spectrometry was conducted to identify putative interacting proteins (FIG. 2A). Eyes Absent Homolog 2 (EYA2), a co-activator of the SIX family of homeobox transcription factors with Tyr phosphatase activity, was one of the most abundant FBXO7-interacting proteins (FIG. 2B). Immunoprecipitation (IP) and in vitro pull-down assays confirmed that FBXO7 interacted with EYA2, but not directly with co-transcriptional partner SIX1 (FIGS. 2C and 2D). EYA2's transactivation domain (AD, aa1-252) but not EYA domain (ED, aa253-538), which interacts with SIX proteins, was required for FBXO7 interaction (FIG. 2E). FBXO7's F-box motif was dispensable for EYA2 interaction (FIG. 2F).
SCFFBXW7 substrate recognition is generally triggered by GSK3β-mediated phosphorylation of the substrate CPD. Recombinant SCFFBXW7 bound a synthetic peptide corresponding to phosphorylated EYA2 CPD (FIG. 3I). […] To determine if EYA2 degradation was regulated by GSK3β, we first confirmed endogenous GSK3 β interacted with EYA2 in vivo by IP (data not shown). […] GSK3β stimulated SCFFBXW7-mediated polyubiquitylation of EYA2 in in vitro ubiquitylation reactions (FIG. 3J). […] Therefore, EYA2 is degraded by SCFFBXW7 in a GSK3β-dependent manner.

EYA2 = EYA2 steady-state level, stability and polyubiquitylation in cells; assay type: cell-based; details: data not shown
Source text: Input proteins are shown. […] FIG. 3C represents a putative EYA2 CPD motif across species and compared with other SCF^FBXW7 substrates. […] FIGS. 3F and 3G represent WT and Flag-EYA2-2A stability in MDA-MB-231 cells (FIG. 3F) and endogenous EYA2 in WT and Fbxw7 KO HCT116 cells (FIG. 3G). […] FIG. 3K represents flag-EYA2 stability in MDA-MB-231 cells treated with vehicle (DMSO) or GSK3βi. […] Input proteins shown. […] FIG. 3O represents a model of FBXO7 inhibition of GSK3β-SCFFBXW7-mediated degradation of EYA2.
FBXW7 expression enhanced EYA2 K48-linked but not K63-linked polyubiquitylation (FIG. 3D), indicating SCFFBXW7 regulated EYA2 degradation. IP confirmed EYA2's CPD was required for FBXW7 binding (FIG. 3E). In contrast, FBXO7-EYA2 binding was independent of EYA2's CPD (data not shown). […] In isogenic WT and Fbxw7 knockout (KO) cell lines, the steady-state level and stability of EYA2 increased and polyubiquitylation decreased in the absence of Fbxw7 (FIGS. 3G, 3H).
SCFFBXW7 substrate recognition is generally triggered by GSK3β-mediated phosphorylation of the substrate CPD. Recombinant SCFFBXW7 bound a synthetic peptide corresponding to phosphorylated EYA2 CPD (FIG. 3I). […] To determine if EYA2 degradation was regulated by GSK3β, we first confirmed endogenous GSK3 β interacted with EYA2 in vivo by IP (data not shown). […]

Row | SMILES | effects on gene expression and cell morphology [1] | total and secreted GAS6 protein (GAS6 in MDA-MB-231 cells; data not shown) | GAS6 expression (GAS6 in MDA-MB-231 cells; mesenchymal MDA-MB-231 cells, FIG. 4I) | AXL signaling (AXL signaling) | sensitivity of cancer cells to doxorubicin treatment (cancer cells) | lung metastases ([2]; MDA-MB-231-luc) | tumor cell autonomous growth ([2]; orthotopic MDA-MB-231-luc breast tumors) | intertumoral infiltration of CD8+T and NK cells (4T1-luc breast tumors; flow cytometric and IHC analyses of 4T1-luc tumors) | H-2Kd MHC class I alloantigen surface expression on 4T1-luc tumor cells (4T1-luc breast tumors; flow cytometry, FIG. 6L) | 4T1-luc tumor growth / antitumor response (4T1-luc breast tumors; immunocompetent mice, FIGS. 6H and 6I) | FBXO7-EYA2 binding (FBXO7-EYA2 binding) | EYA2 levels (EYA2)
1 | O=C(N/N=C/c1ccc(Sc2ccccn2)o1)c1cccc(F)c1 [EYA2i, MLS000544460] | induced similar effects on gene expression and cell morphology | decreased total and secreted GAS6 protein | decreased GAS6 expression | suppressed AXL signaling | sensitized cancer cells to doxorubicin treatment | diminished | diminished | stimulated | increased | modestly reduced | – | –
2 | NS(=O)(=O)OC[C@@H]1C[C@@H](n2ccc3c(N[C@H]4CCc5ccccc54)ncnc32)C[C@@H]1O [MLN4924] | – | – | – | – | – | – | – | – | – | – | did not disrupt FBXO7-EYA2 binding | increased EYA2 levels
